The record followed here is PubChem BioAssay AID493002 (Sanford-Burnham Center for Chemical Genomics, 2010).

Structures are written as SMILES.

The experiment relates to S. cerevisiae tim23-1 mutant growth, luminescence. Briefly: tim23-1 mutant yeast growth inhibitors, dose response, luminescence, uHTS hits (AID 493002).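 Also: yeast grown roughly 22 hours at 25 °C before the luminescence read.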

Take `CC(=O)Nc1ccc(S(=O)(=O)N(Cc2cccnc2)Cc2cc3ccc(C)cc3[nH]c2=O)cc1`: the IC50 (as a rule, the concentration that gives 50% inhibition) is 23.1 µM.
The result for `c1ccc2[nH]c(-c3ccc4c(c3)OCO4)nc2c1` reads 8.63 µM; that for `COc1ccc(CCN(/C=C2\Sc3ccccc3C2=O)C(C)=O)cc1OC`, 14 µM; that for `O=C(Nc1cccc(NC(=O)c2cccs2)c1)c1ccc(Br)o1`, 9.28 µM.
As to `C(=C\c1ccccc1)/C=N/Nc1nc2ccccc2[nH]1`, the IC50 is 8.63 µM.
On to `O=C(N/N=C/C(Cl)=C\c1ccccc1)c1cccs1`, for which the IC50 was 4.85 µM.
Take `COc1ccc(S(=O)(=O)CC(=O)c2cc3cccc(C)c3oc2=O)cc1`: the IC50 was 13 µM.
The result for `COc1ccc(-c2cccc(NC(=O)c3cccs3)c2)nn1` reads 14.2 µM; that for `Oc1ccccc1-c1cc(-c2ccc(F)cc2)n[nH]1`, 13.5 µM; that for `COc1ccc(C2=NNC(c3cccs3)=Nc3ccc(OC)cc32)cc1`, 11.1 µM.
As for `Cc1cnc(NC(=O)c2sc(Nc3ccccc3)nc2N)o1`, the half-maximal inhibitory concentration (IC50) was 9.39 µM.
The result for `Cc1ccc(/C=N/NC(=O)c2csc3c2CCCC3)cc1` reads 15.1 µM; that for `Cc1[nH][nH]c(=O)c1C(c1ccc(-c2ccc(Cl)c(Cl)c2)o1)c1c(C)[nH][nH]c1=O`, 14 µM.
With `COc1cccc(C2=NN(C(=O)c3ccco3)C(c3ccco3)C2)c1` (configuration not stated), the IC50 was 20.4 µM.
Take `COc1ccc(C(C[N+](=O)[O-])c2c(-c3ccccc3)cc3ccccn23)cc1` (configuration not stated): the IC50 was 8.82 µM.
Consider `Cc1csc2nc(O)c(C(=O)NC3CCCCC3C)c(=O)n12` (configuration not stated), for which the IC50 was 12.2 µM.
With `Cc1ccn(-c2ccc(NC(=O)c3cccs3)cc2)n1`, the IC50 was 7.04 µM.
As for `O=C(CSc1cccs1)Nc1ccc2ccccc2c1`, the figure is 12.2 µM.
For the compound `CC(C)OC(=O)c1cccnc1SCc1cc(=O)n2ccccc2n1`, the half-inhibitory concentration (IC50) is 9.68 µM.
As for `CCOC(=O)c1cnc(-n2nc(C)cc2C)nc1NCCc1ccccc1`, the figure is 9.75 µM; as for `Oc1ccccc1-c1cc(-c2cccc(F)c2)n[nH]1`, 13.2 µM; as for `O=C1c2cccc3c(Cl)ccc(c23)C(=O)N1O`, 9.64 µM.
The result for `Oc1ccc(-c2nccc(-c3cccs3)n2)cc1` reads 20.2 µM; that for `Nc1nc(Nc2ccccc2)sc1C(=O)c1ccccc1`, 21 µM.
Turning to `O=C(Nc1cc(-c2ccccc2)[nH]n1)c1ccccc1`, the 50% inhibitory concentration (IC50) is 4.2 µM.
In the case of `COc1ccc(/C=N/NC(=O)c2cccs2)c2ccccc12`, the IC50 was 13.7 µM.
As for `O=C1NN=C(c2ccc(Br)cc2)CC1c1ccc(Cl)cc1` (configuration not stated), the figure is 9.86 µM; as for `Nc1nc2c(s1)CCc1c-2cnn1-c1ccccc1`, 12.4 µM.
As for `CS(=O)(=O)c1ccc2nc(NC(=O)c3ccco3)sc2c1`, the figure is 19.4 µM; as for `O=[N+]([O-])c1ccccc1S(=O)(=O)Nc1cccc2cccnc12`, 7.7 µM; as for `O=S(=O)(Nc1cccc(-c2nc3cccnc3s2)c1)c1ccc2c(c1)OCCO2`, 11.6 µM.
Consider `COc1ccc2c(=O)c3c(=O)n(Cc4ccco4)c(-c4ccccc4)nc3oc2c1`, for which the IC50 is 17.5 µM.
